These results are taken from ChEMBL document CHEMBL1201862, “PubChem BioAssay data set” (2004).

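Step 1: Grow cells in 96-well plates. Step 2: Expose to compound for 48 hours at 5 concentrations. Step 3: Interpolate endpoints linearly; if unreached, use highest concentration. Abbreviation: GI50, concentration required for 50% inhibition of growth.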 The source made the active and inactive calls. No stated cut-off is given here; in the data, active = GI50 up to about 1.1 µM and inactive = higher. Bounds are passed on as bounds.

Some test systems named below: 786-0; CCRF-CEM; IGROV-1; K562; M14; NCI-H226; NCI-H460; OVCAR-3; RPMI-8226; SF-295; SK-MEL-2; SK-OV-3; SN12C; SNB-78; TK-10; UACC-257; UO-31; Hs-578T; MDA-N; MDA-MB-231.
Holding throughout (test): NCI anticancer screen, dose series, 48 h

Turning to `CC(C)(C)OC(=O)NC(CO)c1cccc(OCc2ccccc2)c1` (configuration not stated), the GI50 with 786-0 was > 100 µM (inactive); in the test on CCRF-CEM, 31.7 µM (inactive); with IGROV-1, > 100 µM (inactive); in the test on K562, 36 µM (inactive); in the test on M14, 41.9 µM (inactive); with NCI-H226 it was > 100 µM (inactive). For the same compound, the GI50 with NCI-H460 was 35.3 µM (inactive); in the test with OVCAR-3, > 100 µM (inactive); in the test on RPMI-8226, 43.4 µM (inactive); with SF-295, 63.4 µM (inactive); in the test with SK-MEL-2, > 100 µM (inactive); in the test with SK-OV-3, > 100 µM (inactive). The GI50 in the test on SN12C was > 100 µM (inactive); in the test with SNB-78, 83.4 µM (inactive); with TK-10, > 82.6 µM (inactive); in the test on UACC-257, 25.9 µM (inactive); with UO-31, > 100 µM (inactive).
`Oc1ncnc2c1nnn2CCCCCCCCCCCCn1nnc2c(O)ncnc21`: the GI50 with 786-0 is 22.9 µM (inactive); in the test with CCRF-CEM it was > 100 µM (inactive); with Hs-578T, 18.9 µM (inactive); with IGROV-1, 22.2 µM (inactive); in the test with K562 it was > 100 µM (inactive); in the test on M14 it was > 100 µM (inactive). Besides, the GI50 was > 100 µM (inactive) in the test with MDA-N; 32.6 µM (inactive) with NCI-H226; 51.8 µM (inactive) in the test with NCI-H460; 40.5 µM (inactive) in the test with OVCAR-3; > 100 µM (inactive) with RPMI-8226; 14.5 µM (inactive) with SF-295. For the same compound, the GI50 was 23.4 µM (inactive) in the test on SK-MEL-2; 17.7 µM (inactive) in the test on SK-OV-3; > 85.5 µM (inactive) in the test with SN12C; 19.2 µM (inactive) in the test on SNB-78; 24.4 µM (inactive) in the test with TK-10; 20.3 µM (inactive) with UACC-257. For the same compound, in the test with UO-31, the GI50 is 25.7 µM (inactive).
Take `CCn1c2c(n(CC)c1=S)-c1c(n(CC)c(=S)n1CC)SSSS2`: the GI50 was 16.7 µM (inactive) with 786-0; 1.24 µM (inactive) in the test on CCRF-CEM; 0.308 µM (active) in the test on Hs-578T; 17.8 µM (inactive) with IGROV-1; 1.03 µM (active) with K562; 6.35 µM (inactive) with M14. Further, the GI50 in the test on MDA-MB-231 is 2.18 µM (inactive); in the test with MDA-N, > 10 µM (inactive); with NCI-H226 it was 31.8 µM (inactive); in the test on NCI-H460 it was 53.7 µM (inactive); with OVCAR-3, 7.23 µM (inactive); with RPMI-8226, 2.82 µM (inactive). Besides, the GI50 in the test with SF-295 is 40.7 µM (inactive); in the test with SK-MEL-2, 16.6 µM (inactive); in the test on SK-OV-3 it was > 67.3 µM (inactive); with SN12C, 11.2 µM (inactive); in the test on SNB-78 it was 11.4 µM (inactive); in the test with TK-10 it was 15.2 µM (inactive). Moreover, the figures for the GI50 with UACC-257 and in the test on UO-31 were 8.57 µM (inactive) and 12.7 µM (inactive), respectively.
On to `Brc1ccc2c(c1)C1(c3cc(Br)ccc3-2)c2cc(Br)ccc2-c2ccc(Br)cc21`, for which the GI50 with 786-0, with CCRF-CEM, in the test with IGROV-1, in the test with K562, in the test on M14 and with NCI-H226 was > 100 µM (inactive) in each case. Further, the GI50 in the test with NCI-H460, with OVCAR-3, in the test with RPMI-8226, in the test with SF-295, with SK-MEL-2 and with SK-OV-3 was > 100 µM (inactive) each time. In addition, the GI50 with SN12C, in the test on SNB-78, in the test with TK-10, in the test on UACC-257 and in the test on UO-31 was > 100 µM (inactive) in each case.
For the compound `Cc1cn(C2CC(n3cncn3)C(C(C)O)O2)c(=O)[nH]c1=O` (configuration not stated), the GI50 with 786-0, in the test on CCRF-CEM, in the test with IGROV-1, with K562, with M14 and in the test on NCI-H226 was > 100 µM (inactive) each time. For the same compound, the GI50 in the test on NCI-H460, in the test with OVCAR-3, in the test on RPMI-8226, in the test on SF-295, in the test with SK-MEL-2 and in the test on SK-OV-3 was > 100 µM (inactive) in each case. The GI50 in the test on SN12C, in the test with SNB-78, in the test with TK-10, in the test with UACC-257 and in the test with UO-31 was > 100 µM (inactive) throughout.
For `Cc1nn2c(=O)n(-c3cccc(-n4nnc5c(-c6ccccc6)c(C)nn5c4=O)c3C)nnc2c1-c1ccccc1`, the GI50 with 786-0 is 94.4 µM (inactive); in the test with CCRF-CEM, 19.9 µM (inactive); in the test on IGROV-1, 22.4 µM (inactive); in the test on K562 it was 20.1 µM (inactive); with M14, 15.2 µM (inactive); in the test on NCI-H226 it was 45.3 µM (inactive). The GI50 in the test on NCI-H460 was 18.5 µM (inactive); in the test on OVCAR-3, 6.95 µM (inactive); in the test on RPMI-8226 it was 17.6 µM (inactive); in the test with SF-295, 44.9 µM (inactive); in the test on SK-MEL-2, 3.33 µM (inactive); in the test on SK-OV-3, > 100 µM (inactive). In addition, the GI50 in the test with SN12C was 17.1 µM (inactive); in the test on SNB-78, 82.2 µM (inactive); with TK-10, 47.9 µM (inactive); in the test on UACC-257, 22.4 µM (inactive); with UO-31, 8.91 µM (inactive).
